Data published in US20260176284A1, “Compounds with Anti-KRAS Mutated Tumor Activity” (Trasveda Ltd., priority 2022, published 2026).
pIC50: −log10 of the molar value.

Tested on: KRAS G12D mutated AGS human gastric adenocarcinoma cells
Test: Proliferation inhibition of KRAS G12D mutant AGS cells (CellTiter-Glo, 3 days; IC50 and single-point inhibition rate at 1 μM)
Format: cell-based
Settings: 72 h, 3 days incubation, max concentration 10 μM
Experimental: This experiment assessed and validated the proliferation inhibitory activity of some compounds of the present invention against KRAS G12D mutant AGS cells.
Incubate at 37° C., 5% CO2, 95% humidity.
The following materials, instruments, and reagents were used in this experiment: Fetal Bovine Serum FBS (GIBCO, Cat #10099-141); CellTiter-Glo® Luminescent Cell Viability Assay (Promega, Cat #G7572); 96-well clear flat-bottom black-wall plate (Corning®, Cat #3603); SpectraMax multimode microplate reader (MD, 2104-0010A); CO2 Incubator (Thermo Scientific, Model 3100 Series); Biosafety cabinet (Thermo Scientific, Model 1300 Series A2); Inverted microscope (Olympus, CKX41SF); AGS cell line was purchased from Nanjing Kebai Biotechnology Co., Ltd., under the lot number CBP60476.
Cell culture and inoculation: The cells in the logarithmic growth phase were harvested, and cell counting was performed using a platelet counter. The cell viability was detected by Trypan Blue exclusion method to ensure that the cell viability was above 90%. The cell concentration was adjusted. Then, 90 μL of the cell suspension was added to each well of a 96-well plate respectively, and the cells in the 96-well plate were cultured at 37° C. and 5% CO2.
Drug dilution and addition: a) For the preparation of drugs for single-point inhibition rate determination: A 10-fold concentrated drug solution was prepared. 10 μL of the drug solution was added to each well of the 96-well plate inoculated with cells to make the working concentration 1 μM, and three replicate wells were set for each drug concentration; b) For the preparation of drugs for IC50 determination: A 10-fold concentrated drug solution was prepared. 10 μL of the drug solution was added to each well of the 96-well plate inoculated with cells to make the maximum working concentration 10 μM, with a 3.16× dilution and a total of 9 concentrations. Three replicate wells were set for each drug concentration. The cells in the 96-well plate with the added drugs were incubated at 37° C. and 5% CO2 for another 3 days, and then the CTG assay was performed.
The CTG reagent was thawed, and the cell plate was equilibrated to room temperature for 30 minutes. An equal volume of CTG solution was added to each well, and the plate was shaken on an orbital shaker for 5 minutes to lyse the cells. The cell plate was placed at room temperature for 20 minutes to stabilize the luminescence signal, and then the luminescence value was read.
The data were analyzed using GraphPad Prism 7.0 software. The data were fitted by nonlinear S-curve regression to obtain the dose-response curve, and the IC50 value was calculated accordingly.

Row | Structure (SMILES) | pIC50
1 | C#Cc1c(F)ccc2cc(O)cc(-c3c(F)cc4c(N5CC6CCC(C5)N6)nc(OCC5(C)CN(C)CCC5OC)nc4c3F)c12 (atropisomer, axis not shown; (Ra)) [Example 5, (Ra)-4-(4-(((1R,5S)-3,8-diazabicyclo[3.2.1]octan-3-yl)-6,8-difluoro-2-(4-methoxy-1,3-dimethylpiperidin-3-yl)methoxy)quinazolin-7-yl)-5-ethynyl-6-fluoronaphthalen-2-ol·diformate] | 6.76
2 | C#Cc1c(F)ccc2cc(O)cc(-c3c(F)cc4c(N5CC6CCC(C5)N6)nc(OCC5(C)CCCN(CCF)C5)nc4c3F)c12 (atropisomer, axis not shown; (Ra)) [Example 4, (Ra)-4-(4-((1R,5S)-3,8-diazabicyclo[3.2.1]octan-3-yl)-6,8-difluoro-2-(1-(2-fluoroethyl)-3-methylpiperidin-3-yl)methoxy)quinazolin-7-yl)-5-ethynyl-6-fluoronaphthalen-2-ol·diformate] | 7.06
3 | C#Cc1c(F)ccc2cc(O)cc(-c3c(F)cc4c(N5CC6CCC(C5)N6)nc(OCC5(F)CCCN(C)C5)nc4c3F)c12 (atropisomer, axis not shown; (Ra)) [Example 1, (Ra)-4-(4-((1R,5S)-3,8-diazabicyclo[3.2.1]octan-3-yl)-6,8-difluoro-2-(3-fluoro-1-methylpiperidin-3-yl)methoxy)quinazolin-7-yl)-5-ethynyl-6-fluoronaphthalen-2-ol·diformate] | 7.03
4 | C#Cc1c(F)ccc2cc(O)cc(-c3c(F)cc4c(N5CC6CCC(C5)N6)nc(OCC5(C)CCCCN(CCOC)C5)nc4c3F)c12 [Example 8, 4-(4-((1R,5S)-3,8-diazabicyclo[3.2.1]octane-3-yl)-6,8-difluoro-2-((1-(2-methoxyethyl)-3-methylazepan-3-yl)methoxy)quinazolin-7-yl)-5-ethynyl-6-fluoronaphthalen-2-ol·triformate] | 6.60
5 | C#Cc1c(F)ccc2cc(O)cc(-c3c(F)cc4c(N5CC6CCC(C5)N6)nc(OCC5(C)CN(C)CCC5(F)F)nc4c3F)c12 (atropisomer, axis not shown; (Ra)) [Example 6, (Ra)-4-(4-((1R,5S)-3,8-diazabicyclo[3.2.1]octan-3-yl)-2-((4,4-difluoro-1,3-dimethylpiperidin-3-yl)methoxy)-6,8-difluoroquinazolin-7-yl)-5-ethynyl-6-fluoronaphthalen-2-ol] | 7.26
6 | C#Cc1c(F)ccc2cc(O)cc(-c3c(F)cc4c(N5CC6CCC(C5)N6)nc(OCC5(C)CCCN(CCOC)C5)nc4c3F)c12 (atropisomer, axis not shown; (Ra)) [Example 3, (Ra)-4-(4-((1R,5S)-3,8-diazabicyclo[3.2.1]octan-3-yl)-6,8-difluoro-2-(1-(2-methoxyethyl)-3-methylpiperidin-3-yl)methoxy)quinazolin-7-yl)-5-ethynyl-6-fluoronaphthalen-2-ol·formate] | 6.80
7 | C#Cc1c(F)ccc2cc(O)cc(-c3c(F)cc4c(N5CC6CCC(C5)N6)nc(OCC5COCCN(C)C5)nc4c3F)c12 (centres unmarked) [Example 7] | 6.11
8 | C#Cc1c(F)ccc2cc(O)cc(-c3c(F)cc4c(N5CC6CCC(C5)N6)nc(OCC5(C)CCCN(C)C5)nc4c3F)c12 (atropisomer, axis not shown; (Ra)) [Example 2, (Ra)-4-(4-((1R,5S)-3,8-diazabicyclo[3.2.1]octan-3-yl)-2-((1,3-dimethylpiperidin-3-yl)methoxy)-6,8-difluoroquinazolin-7-yl)-5-ethynyl-6-fluoronaphthalen-2-ol·dicarboxylate] | 7.30
9 | C#Cc1c(F)ccc2cc(O)cc(-c3c(F)cc4c(N5CC6CCC(C5)N6)nc(OCC56CC5CCN(C)C6)nc4c3F)c12 (atropisomer, axis not shown; (Ra)) [Example 9, (Ra)-4-(4-((1R,5S)-3,8-diazabicyclo[3.2.1]octan-3-yl)-6,8-difluoro-2-((3-methyl-3-azabicyclo[4.1.0]heptan-1-yl)methoxy)quinazolin-7-yl)-5-ethynyl-6-fluoronaphthalen-2-ol·diformate] | 6.46

Tested on: KRAS G12D mutated AGS human gastric adenocarcinoma cells
Test: Proliferation inhibition of KRAS G12D mutant AGS cells, another experiment with similar protocol (includes MRTX1133)
Format: cell-based
Settings: Homo sapiens
Experimental: In another experiment, using a protocol similar to the one described above, the inhibitory activity of some representative compounds of the present invention against KRAS G12D mutated AGS human gastric adenocarcinoma cells was determined.
The synthesis of compound MRTX1133 was performed according to the method described in J. Med. Chem. 2022, 65, 4, 3123-3133.

Row | Structure (SMILES) | pIC50
10 | CN1CC/C(=C\F)[C@](C)(COc2nc(N3CC4CCC(C3)N4)c3cc(C(F)(F)F)c(-c4cccc5sc(N)c(C#N)c45)c(F)c3n2)C1 (single isomer, unassigned) [Example 318-1] | 8.05
11 | C#Cc1c(F)ccc2cc(O)cc(-c3ncc4c(N5CC6CCC(C5)N6)nc(OC[C@]5(CC)CN(C)CC[C@@H]5C(F)F)nc4c3F)c12 (racemic) [Example 396, (±)4-(4-((1R,5S)-3,8-diazabicyclo[3.2.1]octan-3-yl)-2-(((3S,4S)-4-(difluoromethyl)-3-ethyl-1-methylpiperidin-3-yl)methoxy)-8-fluoropyrido[4,3-A]pyrimidin-7-yl)-5-ethynyl-6-fluoronaphthalen-2-ol] | 7.96
12 | C#Cc1c(F)ccc2cc(O)cc(-c3c(F)cc4c(N5CC6CCC(C5)N6)nc(OC[C@]5(C)CN(C6CC6)CCC5(F)F)nc4c3F)c12 (atropisomer, axis not shown; (Ra)) [Example 49, (Ra)-4-(4-((1R,5S)-3,8-diazabicyclo[3.2.1]octan-3-yl)-2-(((S)-1-cycloprop-yl-4,4-difluoro-3-methylpiperi-din-3-yl)methoxy)-6,8-difluoroquinazolin-7-yl)-5-ethynyl-6-fluoronaph-thalen-2-ol] | 6.41
13 | CN1CC/C(=C\F)[C@](C)(COc2nc(N3C[C@H]4CC[C@@H](C3)N4)c3cc(C(F)(F)F)c(-c4cccc5sc(N)c(C#N)c45)c(F)c3n2)C1 [Example 318, 4-(4-((1R,5S)-3,8-diazabicyclo[3.2.1]octan-3-yl)-8-fluoro-2-(((S,E)-4-(fluoromethylene)-1,3-dimethylpiperidin-3-yl)methoxy)-6-(trifluoromethyl)quinazolin-7-yl)-2-aminobenzo[b]thiophene-3-carbonitrile] | 7.55
14 | Cc1cc(N)c(C#N)c(-c2c(F)cc3c(N4C[C@H]5CC[C@@H](C4)N5)nc(OC[C@]4(C)CN(C)CC[C@@H]4CF)nc3c2F)c1C(F)(F)F (single isomer, unassigned) [Example 85-2] | 7.42
15 | C#Cc1c(F)ccc2cc(O)cc(-c3c(F)cc4c(N5CC6CCC(C5)N6)nc(OC[C@]5(C)CN(CC)CC[C@@H]5F)nc4c3F)c12 (atropisomer, axis not shown; (Ra)) [Example 50-1, (Ra)-4-(4-((1R,5S)-3,8-diazabicyclo[3.2.1]octan-3-yl)-2-(((35,4S)-1-ethyl-4-fluoro-3-methylpiper-idin-3-yl)methoxy)-6,8-difluoroquinazolin-7-yl)-5-ethynyl-6-fluoronaph-thalen-2-ol] | 7.82
16 | CN1CC[C@H](C(F)F)[C@](C)(COc2nc(N3C[C@H]4CC[C@@H](C3)N4)c3cc(C#N)c(-c4cccc5sc(N)c(C#N)c45)c(F)c3n2)C1 [Example 328, 7-(2-amino-3-cyanobenzo[b]thiophen-4-yl)-4-((1R,5S)-3,8-diazabicyclo[3.2.1]octan-3-yl)-2-(((3S,4S)-4-(difluoromethyl)-1,3-dimethylpiperidin-3-yl)methoxy)-8-fluoroquinazoline-6-carbonitrile] | 7.35
17 | CN1CC[C@H](C(F)F)[C@](C)(COc2nc(N3C[C@H]4CC[C@@H](C3)N4)c3cc(Cl)c(-c4cccc5sc(N)c(C#N)c45)c(F)c3n2)C1 [Example 312, 4-(4-((1R,5S)-3,8-diazabicyclo[3.2.1]octan-3-yl)-6-chloro-2-(((3S,4S)-4-(difluoromethyl)-1,3-dimethylpiperidin-3-yl)methoxy)-8-fluoroquinazolin-7-yl)-2-aminobenzo[b]thiophen-3-nitrile] | 7.60
